Assay results reported in patent publication US20240208992A1, “MACROCYCLES AS CFTR MODULATORS” (Idorsia Pharmaceuticals Ltd, priority 2021, published 2024).

Target: human F508del-CFTR (Homo sapiens, UniProt P13569, DEL508-508)
Assay: F508del-CFTR cell surface expression (corrector activity), DiscoveRx ß-galactosidase complementation chemiluminescence assay in recombinant U2OS cell line;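 note: U2OS cells co-expressing ProLink-tagged F508del-CFTR and a membrane-anchored enzyme acceptor, where more surface CFTR restores β-galactosidase activity measured by chemiluminescence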
Conditions: for EC50: EC50, F508del-CFTR cell surface expression, U2OS cells, 16h compound incubation, geomean values; for Emax: U2OS, in relation to Emax of corrector lumacaftor (=100%), arithmetic mean values

Chain of human F508del-CFTR (P13569 with tags, fused parts or gaps DEL508-508): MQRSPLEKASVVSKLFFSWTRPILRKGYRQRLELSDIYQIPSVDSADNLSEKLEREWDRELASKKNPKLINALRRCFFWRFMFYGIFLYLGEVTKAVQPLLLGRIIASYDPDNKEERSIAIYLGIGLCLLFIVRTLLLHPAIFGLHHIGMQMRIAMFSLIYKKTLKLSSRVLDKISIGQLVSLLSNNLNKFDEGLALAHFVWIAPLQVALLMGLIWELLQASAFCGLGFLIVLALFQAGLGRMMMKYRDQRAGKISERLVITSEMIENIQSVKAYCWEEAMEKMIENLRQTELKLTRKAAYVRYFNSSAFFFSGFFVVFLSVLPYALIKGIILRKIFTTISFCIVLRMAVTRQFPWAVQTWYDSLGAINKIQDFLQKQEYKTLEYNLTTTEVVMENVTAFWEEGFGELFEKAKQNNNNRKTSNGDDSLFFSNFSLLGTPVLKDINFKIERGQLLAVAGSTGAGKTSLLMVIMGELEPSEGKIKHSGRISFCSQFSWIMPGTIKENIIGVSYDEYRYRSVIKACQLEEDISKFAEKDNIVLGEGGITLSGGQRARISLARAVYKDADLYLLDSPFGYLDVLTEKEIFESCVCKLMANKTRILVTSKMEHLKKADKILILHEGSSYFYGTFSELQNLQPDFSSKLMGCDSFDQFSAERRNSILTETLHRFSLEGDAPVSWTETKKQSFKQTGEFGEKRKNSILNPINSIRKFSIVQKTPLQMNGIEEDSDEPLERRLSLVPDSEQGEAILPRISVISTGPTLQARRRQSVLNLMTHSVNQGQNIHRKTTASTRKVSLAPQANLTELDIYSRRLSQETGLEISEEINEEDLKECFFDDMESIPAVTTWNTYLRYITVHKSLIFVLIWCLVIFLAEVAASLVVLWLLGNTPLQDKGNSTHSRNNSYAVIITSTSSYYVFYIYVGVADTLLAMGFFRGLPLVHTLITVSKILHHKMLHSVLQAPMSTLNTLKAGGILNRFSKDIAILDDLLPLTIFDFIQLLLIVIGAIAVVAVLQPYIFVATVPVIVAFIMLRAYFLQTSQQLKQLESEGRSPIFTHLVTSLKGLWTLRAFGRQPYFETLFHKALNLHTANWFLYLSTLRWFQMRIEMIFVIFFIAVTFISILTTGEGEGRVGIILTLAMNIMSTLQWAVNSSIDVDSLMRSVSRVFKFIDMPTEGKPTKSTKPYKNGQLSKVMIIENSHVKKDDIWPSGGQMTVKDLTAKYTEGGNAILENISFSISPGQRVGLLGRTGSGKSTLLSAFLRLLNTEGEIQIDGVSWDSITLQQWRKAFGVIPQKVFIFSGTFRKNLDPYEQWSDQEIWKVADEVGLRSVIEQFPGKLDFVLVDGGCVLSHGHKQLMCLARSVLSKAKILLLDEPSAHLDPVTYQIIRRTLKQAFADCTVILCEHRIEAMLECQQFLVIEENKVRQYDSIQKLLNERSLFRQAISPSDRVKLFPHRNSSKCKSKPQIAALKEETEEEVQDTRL

Row | SMILES | EC50 [nM] | Emax [%]
1 | COc1cccc(CCNC(=O)[C@@H]2CC(=O)N(C)[C@@H](CC(C)C)C(=O)N3CC[C@@H](C3)C(=O)N[C@H](Cc3ccccc3)COc3ccc(OC)cc3C(=O)N2)c1 [Example 584, (13S,4R,10S,14S)-4-benzyl-14-isobutyl-74-methoxy-N-(3-methoxyphenethyl)-13-methyl-2,8,12,15-tetraoxo-6-oxa-3,9,13-triaza-1(3,1)-pyrrolidina-7(1,2)-benzenacyclopentadecaphane-10-carboxamide] | 575 | 156
2 | COc1cc2c(cc1OC)C(=O)N[C@H](C(=O)NCCc1ccc3c(c1)OCO3)CC(=O)N(C)[C@@H](CC(C)C)C(=O)N(CCC1CCCCC1)CC(=O)N[C@H](Cc1ccccc1)CO2 [Example 585, (3R,9S,13S)-N-(2-(benzo[d][1,3]dioxol-5-yl)ethyl)-3-benzyl-7-(2-cyclohexylethyl)-9-isobutyl-17,18-dimethoxy-10-methyl-5,8,11,15-tetraoxo-2,3,4,5,6,7,8,9,10,11,12,13,14,15-tetradecahydrobenzo[p][1]oxa[4,7,10,14]tetraazacycloheptadecine-13-carboxamide] | 176 | 168
3 | COc1cccc(CCNC(=O)[C@@H]2CC(=O)N(C)[C@@H](CC(C)C)C(=O)N(CCC3CCCCC3)CC(=O)N[C@H](Cc3ccccc3)COc3cc(OC)c(OC)cc3C(=O)N2)c1 [Example 586, (3R,9S,13S)-3-benzyl-7-(2-cyclohexylethyl)-9-isobutyl-17,18-dimethoxy-N-(3-methoxyphenethyl)-10-methyl-5,8,11,15-tetraoxo-2,3,4,5,6,7,8,9,10,11,12,13,14,15-tetradecahydrobenzo[p][1]oxa[4,7,10,14]tetraazacycloheptadecine-13-carboxamide] | 221 | 165
4 | COc1cccc(CCNC(=O)[C@@H]2CC(=O)N(C)[C@@H](CC(C)C)C(=O)N3CCCC[C@@H]3C(=O)N[C@H](Cc3ccccc3)COc3ccc(OC)cc3C(=O)N2)c1 [Example 587, (7S,11S,20R,22aR)-20-benzyl-7-isobutyl-15-methoxy-N-(3-methoxyphenethyl)-8-methyl-6,9,13,22-tetraoxo-1,3,4,6,7,8,9,10,11,12,13,19,20,21,22,22a-hexadecahydro-2H-benzo[p]pyrido[2,1-f][1]oxa[4,7,10,14]tetraazacycloheptadecine-11-carboxamide] | 414 | 106
5 | COc1cccc(CCNC(=O)[C@@H]2CC(=O)N(C)[C@@H](CC(C)C)C(=O)N3CCOC[C@@H]3C(=O)N[C@H](Cc3ccccc3)COc3ccc(OC)cc3C(=O)N2)c1 [Example 588, (7S,11S,20R,22aR)-20-benzyl-7-isobutyl-15-methoxy-N-(3-methoxyphenethyl)-8-methyl-6,9,13,22-tetraoxo-1,3,4,6,7,8,9,10,11,12,13,19,20,21,22,22a-hexadecahydrobenzo[p][1,4]oxazino[3,4-f][1]oxa[4,7,10,14]tetraazacycloheptadecine-11-carboxamide] | 650 | 102
6 | CC(C)C[C@H]1C(=O)N(CCC2CCCCC2)CC(=O)N[C@H](Cc2ccccc2)COc2ccncc2C(=O)N[C@H](C(=O)NCCc2ccc3c(c2)OCO3)CC(=O)N1C [Example 589, (3R,9S,13S)-N-(2-(benzo[d][1,3]dioxol-5-yl)ethyl)-3-benzyl-7-(2-cyclohexylethyl)-9-isobutyl-10-methyl-5,8,11,15-tetraoxo-2,3,4,5,6,7,8,9,10,11,12,13,14,15-tetradecahydropyrido[3,4-p][1]oxa[4,7,10,14]tetraazacycloheptadecine-13-carboxamide] | 298 | 160
7 | COc1cccc(CCNC(=O)[C@@H]2CC(=O)N(C)[C@@H](CC(C)C)C(=O)N(CCC3CCCCC3)CC(=O)N[C@H](Cc3ccccc3)COc3ccncc3C(=O)N2)c1 [Example 590, (3R,9S,13S)-3-benzyl-7-(2-cyclohexylethyl)-9-isobutyl-N-(3-methoxyphenethyl)-10-methyl-5,8,11,15-tetraoxo-2,3,4,5,6,7,8,9,10,11,12,13,14,15-tetradecahydropyrido[3,4-p][1]oxa[4,7,10,14]tetraazacycloheptadecine-13-carboxamide] | 362 | 201
8 | COc1cccc(CCNC(=O)[C@@H]2CC(=O)N(C)[C@@H](CC(C)C)C(=O)N3CCCC[C@@H]3C(=O)N[C@H](Cc3ccccc3)COc3cccc(OC)c3C(=O)N2)c1 [Example 591, (7S,11S,20R,22aR)-20-benzyl-7-isobutyl-14-methoxy-N-(3-methoxyphenethyl)-8-methyl-6,9,13,22-tetraoxo-1,3,4,6,7,8,9,10,11,12,13,19,20,21,22,22a-hexadecahydro-2H-benzo[p]pyrido[2,1-f][1]oxa[4,7,10,14]tetraazacycloheptadecine-11-carboxamide] | 341 | 259
9 | CC(C)C[C@H]1C(=O)N2CCCC[C@H]2C(=O)N[C@H](Cc2ccccc2)COc2ccncc2C(=O)N[C@H](C(=O)NCCc2ccc3c(c2)OCC3)CC(=O)N1C [Example 592, (7S,11S,17aS,20R)-20-benzyl-N-(2-(2,3-dihydrobenzofuran-6-yl)ethyl)-11-isobutyl-10-methyl-5,9,12,18-tetraoxo-5,6,7,8,9,10,11,12,15,16,17,17a,18,19,20,21-hexadecahydro-14H-dipyrido[2,1-f:3′,4′-p][1]oxa[4,7,10,14]tetraazacycloheptadecine-7-carboxamide] | 881 | 119
10 | CC(C)C[C@H]1C(=O)N2CCCC[C@@H]2C(=O)N[C@H](Cc2ccccc2)COc2ccncc2C(=O)N[C@H](C(=O)NCCc2ccc3c(c2)OCC3)CC(=O)N1C [Example 593, (7S,11S,17aR,20R)-20-benzyl-N-(2-(2,3-dihydrobenzofuran-6-yl)ethyl)-11-isobutyl-10-methyl-5,9,12,18-tetraoxo-5,6,7,8,9,10,11,12,15,16,17,17a,18,19,20,21-hexadecahydro-14H-dipyrido[2,1-f:3′,4′-p][1]oxa[4,7,10,14]tetraazacycloheptadecine-7-carboxamide] | 614 | 190
11 | CC(C)C[C@H]1C(=O)N2CCCC[C@@H]2C(=O)N[C@H](Cc2ccccc2)COc2ccncc2C(=O)N[C@H](C(=O)NCCc2ccc3c(c2)OCCO3)CC(=O)N1C [Example 594, (7S,11S,17aR,20R)-20-benzyl-N-(2-(2,3-dihydrobenzo[b][1,4]dioxin-6-yl)ethyl)-11-isobutyl-10-methyl-5,9,12,18-tetraoxo-5,6,7,8,9,10,11,12,15,16,17,17a,18,19,20,21-hexadecahydro-14H-dipyrido[2,1-f:3′,4′-p][1]oxa[4,7,10,14]tetraazacycloheptadecine-7-carboxamide] | 810 | 171
12 | COc1cccc(CCNC(=O)[C@@H]2CC(=O)N(C)[C@@H](CC(C)C)C(=O)N(C)CC(=O)N[C@H](Cc3ccccc3)COc3ccc4ccccc4c3C(=O)N2)c1 [Example 595, (3S,7S,13R)-13-benzyl-7-isobutyl-N-(3-methoxyphenethyl)-6,9-dimethyl-1,5,8,11-tetraoxo-1,2,3,4,5,6,7,8,9,10,11,12,13,14-tetradecahydronaphtho[1,2-p][1]oxa[4,7,10,14]tetraazacycloheptadecine-3-carboxamide] | 332 | 233
13 | COc1cc2c(cc1OC)C(=O)N[C@H](C(=O)NCCc1ccc3c(c1)OCCC3)CC(=O)N(C)[C@@H](CC(C)C)C(=O)N(CCC1CCCCC1)CC(=O)N[C@H](Cc1ccccc1)CO2 [Example 596, (3R,9S,13S)-3-benzyl-N-(2-(chroman-7-yl)ethyl)-7-(2-cyclohexylethyl)-9-isobutyl-17,18-dimethoxy-10-methyl-5,8,11,15-tetraoxo-2,3,4,5,6,7,8,9,10,11,12,13,14,15-tetradecahydrobenzo[p][1]oxa[4,7,10,14]tetraazacycloheptadecine-13-carboxamide] | 167 | 195
14 | COc1cc2c(cc1OC)C(=O)N[C@H](C(=O)NCCc1ccc3c(c1)OCC3)CC(=O)N(C)[C@@H](CC(C)C)C(=O)N(CCC1CCCCC1)CC(=O)N[C@H](Cc1ccccc1)CO2 [Example 597, (3R,9S,13S)-3-benzyl-7-(2-cyclohexylethyl)-N-(2-(2,3-dihydrobenzofuran-6-yl)ethyl)-9-isobutyl-17,18-dimethoxy-10-methyl-5,8,11,15-tetraoxo-2,3,4,5,6,7,8,9,10,11,12,13,14,15-tetradecahydrobenzo[p][1]oxa[4,7,10,14]tetraazacycloheptadecine-13-carboxamide] | 168 | 211
15 | COc1cccc(CCNC(=O)[C@@H]2CC(=O)N(C)[C@@H](CC(C)C)C(=O)N(C)CC(=O)N[C@H](Cc3ccccc3)COc3ccc4nc(C)oc4c3C(=O)N2)c1 [Example 598, (8R,14S,18S)-8-benzyl-14-isobutyl-N-(3-methoxyphenethyl)-2,12,15-trimethyl-10,13,16,20-tetraoxo-7,8,9,10,11,12,13,14,15,16,17,18,19,20-tetradecahydrooxazolo[4′,5′:5,6]benzo[1,2-p][1]oxa[4,7,10,14]tetraazacycloheptadecine-18-carboxamide] | 759 | 312
16 | CC(C)C[C@H]1C(=O)N(CCC2CCCCC2)CC(=O)N[C@H](Cc2ccccc2)COc2ccc3ccccc3c2C(=O)N[C@H](C(=O)NCCc2ccc3c(c2)OCCC3)CC(=O)N1C [Example 599, (3S,7S,13R)-13-benzyl-N-(2-(chroman-7-yl)ethyl)-9-(2-cyclohexylethyl)-7-isobutyl-6-methyl-1,5,8,11-tetraoxo-1,2,3,4,5,6,7,8,9,10,11,12,13,14-tetradecahydronaphtho[1,2-p][1]oxa[4,7,10,14]tetraazacycloheptadecine-3-carboxamide] | 151 | 299
